Literature values as cited in patent US20050245613A1, “Use of gaba-b receptor positive modulators in gastro-intestinal disorders” (priority 2002, published 2005).

Key:
[1] = test system: healthy subjects
[2] = test system: GERD patients
[3] = test system: GERD patients; details: long-term recording of esophageal pH
[4] = test system: vagal afferent and efferent fibers
[5] = test system: dogs
[6] = test system: ferrets

In the case of `NCC(CC(=O)O)c1ccc(Cl)cc1` (stereo not drawn) [Baclofen], the “frequency of TLESR” value [1] is given as “reduces the frequency of TLESR”, the “frequency of TLESR” value [2] is given as “reduces the frequency of TLESR” and the esophageal acid exposure [3] is given as “significant reduction in esophageal acid exposure”. The “sensitivity of vagal afferent and efferent fibers” value [4] was “reduce the sensitivity of vagal afferent and efferent fibers”, the “frequency of TLESR” value [5] was “reduces the frequency of TLESR” and the “frequency of TLESR” value [6] was “reduces the frequency of TLESR”.
